From patent publication US8361968B2 (Takeda Pharmaceutical Company Limited, priority 2002, dated 2013)
pIC50: −log10 of the molar value. Square brackets hold non-standard residues; d marks the D form. Peptide text beside a SMILES is read from it. * marks the point of attachment. Propanoyl(3-indol-3-yl) = O=C(CCc1c[nH]c2ccccc12)*; 2Nal = N[C@@H](Cc1ccc2ccccc2c1)C(=O)O; Arg(Me) = CNC(=N)NCCC[C@H](N)C(=O)O; 2Pal = N[C@@H](Cc1ccccn1)C(=O)O; 3Pal = N[C@@H](Cc1cccnc1)C(=O)O; d4Pal = N[C@H](Cc1ccncc1)C(=O)O; Cha = N[C@@H](CC1CCCCC1)C(=O)O; azaGly = NNC(=O)O

Tests used:
[1] = molecular target: T1, hOT7T175 (Homo sapiens, UniProt Q969F8, L364H); experiment: hOT7T175 receptor binding activity: binding inhibition of Cy-5-labeled metastin (40-54) on hOT7T175-expressed CHO cells; parameters: expressed in transfected cells; host or cells: CHO cells
Procedure: Assay for hOT7T175 Receptor Binding Activity
h0T7T175-Expressed CHO cells were cultured in MEM-cc medium (nucleic acid-free) containing 10% dialyzed serum. The medium was removed and the adherent cells were washed with PBS. Then, PBS containing 5 mM EDTA was added and the cells were scraped from a flask with a cell scraper. […] To each well of a 96-Well Black Clear Bottom Plate (Applied Biosystems, Inc.), 10 μL of assay buffer containing 1% dimethylsulfoxide was added to examine total binding, 10 μL of 10 μM non-labeled peptide (having the same amino acid sequence as that of the labeled one) solution diluted with assay buffer to examine non-specific binding, and 10 μL of a test compound diluted with assay buffer to examine the binding inhibition activity of the test compound, respectively. Furthermore, 90 μL each of the cell suspension was dispensed to each well. […] The specific binding is a value obtained by subtracting the non-specific binding from the total binding.

[2] = molecular target: T1, hOT7T175; experiment: Intracellular Ca ion level-increasing activity using FLIPR in hOT7T175/CHO; format: cell-based; parameters: expressed in transfected cells; host or cells: CHO/dhfr- cells, obtained from ATCC; settings: relative, Metastin (1-54) = 1

T1 sequence (Q969F8 whole entry L364H): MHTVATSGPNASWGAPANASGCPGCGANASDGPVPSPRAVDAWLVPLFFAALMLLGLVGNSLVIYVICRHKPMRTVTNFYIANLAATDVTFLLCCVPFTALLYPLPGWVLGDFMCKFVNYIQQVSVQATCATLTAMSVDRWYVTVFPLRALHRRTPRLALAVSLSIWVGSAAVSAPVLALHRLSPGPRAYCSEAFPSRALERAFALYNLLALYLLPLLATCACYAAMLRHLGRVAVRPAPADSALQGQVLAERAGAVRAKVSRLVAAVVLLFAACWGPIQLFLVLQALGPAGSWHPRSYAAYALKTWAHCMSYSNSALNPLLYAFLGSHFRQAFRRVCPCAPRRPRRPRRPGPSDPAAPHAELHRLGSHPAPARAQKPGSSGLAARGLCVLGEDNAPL

Row | SMILES | pIC50 [1] | Specific Activity (intracellular Ca ion level-increasing activity) [2]
1 | COc1ccc(C[C@H](NC(=O)[C@H](CCCNC(=N)N)NC(=O)[C@H](CC(C)C)NC(=O)CNC(=O)[C@H](Cc2ccccc2)NC(=O)[C@H](CO)NC(=O)[C@H](CC(N)=O)NC(=O)[C@H](Cc2c[nH]c3ccccc23)NC(=O)[C@H](CC(N)=O)NC(=O)[C@@H](N)Cc2ccc(O)cc2)C(N)=O)cc1 [Compound No. 18] (H-YNWNSFGLRY(Me)-NH2) | 8.11 | 1
2 | CC(C)C[C@H](NC(=O)CNC(=O)[C@H](Cc1ccccc1)NC(=O)[C@H](CO)NC(=O)[C@H](CC(N)=O)NC(=O)[C@H](Cc1c[nH]c2ccccc12)NC(=O)[C@H](CC(N)=O)NC(=O)[C@H](Cc1ccc(O)cc1)NC(=O)[C@H](CC(N)=O)NC(=O)[C@@H]1CCCN1C(=O)[C@@H](N)CC(C)C)C(=O)N[C@@H](CCCNC(=N)N)C(=O)N[C@@H](Cc1ccccc1)C(N)=O [Compound No. 32, reference compound] | 7.60 | 10
3 | CC(C)C[C@H](NC(=O)[C@H](C)NC(=O)[C@H](Cc1ccccc1)NC(=O)[C@H](CO)NC(=O)[C@H](CC(N)=O)NC(=O)[C@H](Cc1c[nH]c2ccccc12)NC(=O)[C@H](CC(N)=O)NC(=O)[C@@H](N)Cc1ccc(O)cc1)C(=O)N[C@@H](CCCNC(=N)N)C(=O)N[C@@H](Cc1ccccc1)C(N)=O [Compound No. 50] (H-YNWNSFALRF-NH2) | 6.72 | 30
4 | CC(C)C[C@H](NC(=O)CNC(=O)[C@H](Cc1ccccc1)NC(=O)[C@H](CO)NC(=O)[C@H](CC(N)=O)NC(=O)[C@H](Cc1c[nH]c2ccccc12)NC(=O)[C@H](CC(N)=O)NC(=O)[C@@H](N)CC(=O)O)C(=O)N[C@@H](CCCNC(=N)N)C(=O)N[C@@H](Cc1ccccc1)C(N)=O [Compound No. 75] (H-DNWNSFGLRF-NH2) | 6.06 | 1
5 | CC(C)C[C@H](NC(=O)CNC(=O)[C@H](Cc1ccccc1)NC(=O)[C@H](CO)NC(=O)[C@H](CC(N)=O)NC(=O)[C@H](Cc1cn(C=O)c2ccccc12)NC(=O)[C@H](CC(N)=O)NC(=O)[C@@H](N)Cc1ccc(O)cc1)C(=O)N[C@@H](CCCNC(=N)N)C(=O)N[C@@H](Cc1ccc(C#N)cc1)C(N)=O [Compound No. 78, Tyr-Asn-Trp(For)-Asn-Ser-Phe-Gly-Leu-Arg-Phe(4CN)-NH2] | 7.60 | 10
6 | CC(C)C[C@H](NC(=O)CNC(=O)[C@H](Cc1ccccc1)NC(=O)[C@H](CO)NC(=O)[C@H](CC(N)=O)NC(=O)[C@H](Cc1c[nH]c2ccccc12)NC(=O)[C@H](CC(N)=O)NC(=O)[C@@H](N)Cc1ccc(O)cc1)C(=O)N[C@@H](CCCCNC(=N)N)C(=O)N[C@@H](Cc1ccccc1)C(N)=O [Compound No. 97] | 6.43 | 10
7 | CC(C)C[C@H](NC(=O)[C@H](CO)NC(=O)[C@H](Cc1ccccc1)NC(=O)[C@H](CO)NC(=O)[C@H](CC(N)=O)NC(=O)[C@H](Cc1c[nH]c2ccccc12)NC(=O)[C@H](CC(N)=O)NC(=O)[C@@H](N)Cc1ccc(O)cc1)C(=O)N[C@@H](CCCNC(=N)N)C(=O)N[C@@H](Cc1ccccc1)C(N)=O [Compound No. 101] (H-YNWNSFSLRF-NH2) | 7.00 | 10
8 | CCCC[C@H](NC(=O)CNC(=O)[C@H](Cc1ccccc1)NC(=O)[C@H](CO)NC(=O)[C@H](CC(N)=O)NC(=O)[C@H](Cc1c[nH]c2ccccc12)NC(=O)[C@H](CC(N)=O)NC(=O)[C@@H](N)Cc1ccc(O)cc1)C(=O)N[C@@H](CCCNC(=N)N)C(=O)N[C@@H](Cc1ccccc1)C(N)=O [Compound No. 105, Tyr-Asn-Trp-Asn-Ser-Phe-Gly-Nle-Arg-Phe-NH2] | 6.06 | 1
9 | CC(C)C[C@H](NC(=O)CNC(=O)[C@H](Cc1ccccc1)NC(=O)[C@H](CO)NC(=O)[C@H](CC(N)=O)NC(=O)[C@H](Cc1c[nH]c2ccccc12)NC(=O)[C@H](CC(N)=O)NC(=O)[C@@H](N)Cc1ccc(O)cc1)C(=O)N[C@@H](CCCNC(=N)N)C(=O)N[C@@H](Cc1ccc(O)cc1)C(N)=O [Compound No. 109] (H-YNWNSFGLRY-NH2) | 7.64 | 20
10 | CC(C)C[C@H](NC(=O)CNC(=O)[C@H](Cc1ccccc1)NC(=O)[C@H](CO)NC(=O)[C@H](CC(N)=O)NC(=O)[C@H](Cc1c[nH]c2ccccc12)NC(=O)[C@H](CC(N)=O)NC(=O)[C@@H](N)Cc1ccc(O)cc1)C(=O)N[C@@H](CCCNC(=N)N)C(=O)N[C@@H](Cc1c(F)c(F)c(F)c(F)c1F)C(N)=O [Compound No. 111] | 6.85 | 3
11 | CC(C)C[C@H](NC(=O)CNC(=O)[C@H](Cc1ccccc1)NC(=O)[C@H](CO)NC(=O)[C@H](CC(N)=O)NC(=O)[C@H](Cc1c[nH]c2ccccc12)NC(=O)[C@H](CC(N)=O)NC(=O)[C@@H](N)Cc1ccc(O)cc1)C(=O)N[C@@H](CCCNC(=N)N)C(=O)N[C@@H](CC1CCCCC1)C(N)=O [Compound No. 112] (H-YNWNSFGLR[Cha]-NH2) | 6.43 | 2
12 | CC(C)C[C@H](NC(=O)CNC(=O)[C@H](Cc1ccccc1)NC(=O)[C@H](CO)NC(=O)[C@H](CC(N)=O)NC(=O)CCc1c[nH]c2ccccc12)C(=O)N[C@@H](CCCNC(=N)N)C(=O)N[C@@H](Cc1ccccc1)C(N)=O [Compound No. 114, 3-(3-Indolyl)propionyl-Asn-Ser-Phe-Gly-Leu-Arg-Phe-NH2] ({Propanoyl(3-indol-3-yl)}-NSFGLRF-NH2) | 6.26 | 3
13 | CC(C)C[C@H](NC(=O)CNC(=O)[C@H](Cc1ccccc1)NC(=O)[C@H](CO)NC(=O)[C@H](CC(N)=O)NC(=O)[C@H](Cc1c[nH]c2ccccc12)NC(=O)[C@H](CC(N)=O)NC(=O)[C@@H](N)Cc1ccc(O)cc1)C(=O)N[C@@H](CCCNC(=N)N)C(=O)N[C@@H](Cc1ccc(Cl)cc1)C(N)=O [Compound No. 130] | 7.38 | 10
14 | CNC(=N)NCCC[C@H](NC(=O)[C@H](CC(C)C)NC(=O)NNC(=O)[C@H](Cc1ccccc1)NC(=O)[C@H](CO)NC(=O)[C@H](CC(N)=O)NC(=O)[C@H](Cc1cccnc1)NC(=O)[C@H](CC(N)=O)NC(=O)[C@H](N)Cc1ccc(O)cc1)C(=O)N[C@@H](Cc1ccccc1)C(N)=O [Compound No. 251, D-Tyr-Asn-Pya(3)-Asn-Ser-Phe-AzaGly-Leu-Arg(Me)-Phe-NH2] (H-[dY]N[3Pal]NSF[azaGly]L[Arg(Me)]F-NH2) | 7.06 | –
15 | CNC(=N)NCCC[C@H](NC(=O)[C@H](CC(C)C)NC(=O)NNC(=O)[C@H](Cc1ccccc1)NC(=O)[C@H](CO)NC(=O)[C@H](CC(N)=O)NC(=O)[C@@H]1CCCN1C(=O)[C@H](CC(N)=O)NC(=O)[C@H](N)Cc1ccc(O)cc1)C(=O)N[C@@H](Cc1ccccc1)C(N)=O [Compound No. 253, D-Tyr-Asn-Pro-Asn-Ser-Phe-AzaGly-Leu-Arg(Me)-Phe-NH2] (H-[dY]NPNSF[azaGly]L[Arg(Me)]F-NH2) | 7.57 | –
16 | CNC(N)=NCCC[C@H](NC(=O)[C@H](CC(C)C)NC(=O)NNC(=O)[C@H](Cc1ccccc1)NC(=O)[C@H](CO)NC(=O)[C@H](CC(N)=O)NC(=O)[C@H](Cc1ccc2ccccc2c1)NC(=O)[C@H](N)Cc1ccc(O)cc1)C(=O)N[C@@H](Cc1ccccc1)C(N)=O [Compound No. 255, D-Tyr-Nal(2)-Asn-Ser-Phe-AzaGly-Leu-Arg(Me)-Phe-NH2] (H-[dY][2Nal]NSF[azaGly]L[Arg(Me)]F-NH2) | 7.48 | –
17 | CNC(N)=NCCC[C@H](NC(=O)[C@H](CC(C)C)NC(=O)NNC(=O)[C@H](Cc1ccccc1)NC(=O)[C@H](CO)NC(=O)[C@H](CC(N)=O)NC(=O)[C@H](Cc1ccccc1)NC(=O)[C@@H](CC(N)=O)NC(=O)[C@H](N)Cc1ccc(O)cc1)C(=O)N[C@@H](Cc1ccccc1)C(N)=O [Compound No. 257, D-Tyr-D-Asn-Phe-Asn-Ser-Phe-AzaGly-Leu-Arg(Me)-Phe-NH2] (H-[dY][dN]FNSF[azaGly]L[Arg(Me)]F-NH2) | 7.40 | –
18 | CNC(=N)NCCC[C@H](NC(=O)[C@H](CC(C)C)NC(=O)NNC(=O)[C@H](Cc1ccccc1)NC(=O)[C@H](CO)NC(=O)[C@H](CC(N)=O)NC(=O)[C@H](CCCNC(=N)N)NC(C)=O)C(=O)N[C@@H](Cc1ccccc1)C(N)=O [Compound No. 275, Acetyl-Arg-Asn-Ser-Phe-AzaGly-Leu-Arg(Me)-Phe-NH2] (Ac-RNSF[azaGly]L[Arg(Me)]F-NH2) | 6.39 | –
19 | CNC(=N)NCCC[C@H](NC(=O)[C@H](CC(C)C)NC(=O)NNC(=O)[C@H](Cc1ccccc1)NC(=O)[C@H](CO)NC(=O)[C@H](CC(N)=O)NC(=O)[C@H](Cc1ccccn1)NC(=O)[C@H](CC(N)=O)NC(=O)[C@H](N)Cc1ccc(O)cc1)C(=O)N[C@@H](Cc1ccccc1)C(N)=O [Compound No. 285, D-Tyr-Asn-Pya(2)-Asn-Ser-Phe-AzaGly-Leu-Arg(Me)-Phe-NH2] (H-[dY]N[2Pal]NSF[azaGly]L[Arg(Me)]F-NH2) | 7.40 | –
20 | CNC(N)=NCCC[C@H](NC(=O)[C@H](CC(C)C)NC(=O)NNC(=O)[C@H](Cc1ccccc1)NC(=O)[C@H](CO)NC(=O)[C@H](CC(N)=O)NC(=O)[C@@H](Cc1ccncc1)NC(=O)[C@H](CC(N)=O)NC(=O)[C@H](N)Cc1ccc(O)cc1)C(=O)N[C@@H](Cc1ccccc1)C(N)=O [Compound No. 302, D-Tyr-Asn-D-Pya(4)-Asn-Ser-Phe-AzaGly-Leu-Arg(Me)-Phe-NH2] (H-[dY]N[d4Pal]NSF[azaGly]L[Arg(Me)]F-NH2) | 8.11 | –
